# Test results as given in article PMC6014988, “Precision therapeutic targeting of human cancer cell motility” (Nature Communications, 2018).
# pIC50: −log10 of the molar value.
# Tests used:
# [1] = system: over 400 different protein kinases and 20 phosphatases; test: Kinase and phosphatase inhibition, three in vitro assay systems; type: biochemical
# Experimental: Initial assays were performed with PC3 and PC3-M cells (PC3 cell data not shown). However, as these studies yielded similar findings, subsequent screening assays utilized only PC3-M cells. In designing chemical synthetic routes, priority was given to efficacy and toxicity parameters. Additional design features were also included in our chemical […]
# toxicity parameters. These additional design features included removal of fragments that mediated genistein binding to the estrogen receptor (ER), as determined by ER-genistein 3D x-ray crystal structures (Protein Data Base IDs:1X7R and 1X7J, for crystal structures of ERα and ERβ with bound genistein, respectively). These features also included removal of chemical fragments that are considered to increase susceptibility to rapid metabolism, especially that by the cytochrome P450 (CYP) pathway. The final feature involved incorporation of chemical characteristics previously shown to be associated with effective drugs and which together generally impart more favorable pharmacologic properties, including those described by Lipinski […]
# Supplementary Note 2. […] Three […]
# different assays systems were employed.
# Kinase assay system #1. The KINOMEscan™ assay (Ambit Biosciences). This assay evaluates 442 kinases, including 400 distinct parental kinases plus mutants known to alter activity or responsiveness. […]
# [2] = system: human breast cancer LM2-4H2N cells; test: Breast cancer orthotopic implantation and resection survival model; type: in vivo, mouse; settings: 25 mg/kg oral gavage five times per week, post-surgery adjuvant setting
# Experimental: Breast cancer: orthotopic implantation: Orthotopic implantation of 2 × 10^6 dTomato-LM2-4H2N cells in matrigel:PBS human breast cancer cells into 5–6 week old female SCID-Beige mice (Taconic), followed by resection of resultant primary tumor, provides a model wherein survival is dictated by metastatic burden, and was performed as described. KBU2046 treatment by oral gavage 5 days per week began 4 weeks after resection, with weekly IVIS imaging. Animals were excluded from the analysis if they died and/or met the criteria for euthanasia in the 7 day post-operative period. Experimental groups were randomly assigned based upon size of primary tumor before treatment, in and manner that ensured equal distribution of tumor sizes across treatment groups.
# [3] = system: human cord blood CD34+ stem cells; test: Hematopoietic stem cell colony formation assay; type: cell-based
# Experimental: Fourteen-day colony formation assays were conducted as described by us[39], using human cord blood CD34+ stem cells (AllCells Inc.), using MethoCultExpress™ colony growth media (StemCell Technologies Inc.), performed in replicates of N = 2.
# PC3-luc cells = test: Intracardiac injection PC3-luc bone metastasis model; type: in vivo, mouse
# Excerpt: Fig. 3 KBU2046 inhibits bone destruction. a Treatment schema. Athymic mice were given intracardiac (IC) injections of PC3-luc cells on day 0 under ultrasound guidance, and underwent weekly IVIS imaging starting 7 days post injection. Cohorts of N = 20 control, N = 20 pre (treatment from 3 days prior to IC injection through end of the experiment), N = 10 Pre7Stop (treatment from 3 days prior to IC injection through 7 days post IC injection), and N = 10 post-treatment (treatment from 3 days post IC injection through end of the experiment) mice were dosed with 80 mg/kg KBU2046 daily by oral gavage and mock-treated with vehicle all other times. Whole-body (b) and mandible (c) flux are depicted, as determined from weekly IVIS imaging. d At week 4 post injection (i.e., at the end of the experiment), CT scans were performed on control, pre-, and post-treatment cohorts, and mandibular destruction quantified. e Representative images of pre and control mice are depicted. Arrows denote areas of bone destruction in controls, and corresponding areas in the pre mouse. Student’s t-test (b, c) and Fisher’s exact test (d) P values between the denoted cohorts are shown
# Prostate cancer: intracardiac (IC) injection: IC injection of 4.0 × 10^5 PC3-Luc cells into male 6–8 week old athymic mice with IVIS imaging was performed as described, and was done so under ultrasound guidance (Supplementary Fig. 9). Mice were treated pre- and/or post-IC injection, as indicated. The pretreatment cohort emulates a metastasis naive model wherein cell motility is required in order for cells to invade into a distant organ, in this case, the jaw bone, for which this model is widely used. If KBU2046 were inhibiting cell motility, then in this model it would act to inhibit metastasis formation. In contrast, with the post-implantation cohort, cells have already completed invasion into the jaw bone, and distant metastasis have been established. […] IVIS imaging was performed 30 min after IC injection to confirm systemic distribution of cells, and thereafter weekly for 4 weeks starting 7 days post injection, allowing real-time tracking of metastasis development and growth. Computed tomograpgy (CT) (Inveon, Seimens) radiographic imaging was performed on some mice, as indicated, and resultant images analyzed in a blinded fashion using Inveon Research Workplace 4.2 visualization/analysis software and ImageJ. […] Experimental groups were randomly assigned to cages prior to the initiation of the study. CT images were analyzed in a blinded fashion to determine total bone loss using both the Invenon Research Workplace 4.2 visualization/analysis software and ImageJ. Specifically, to asses bone loss in an unbiased manner, an operator randomly loaded images into the system and blocked out identifying information prior to analysis by two separate blinded individuals.
# 1532NPTX = test: Three-day MTT cell growth inhibition assay, 1532NPTX; type: cell-based, human; settings: Homo sapiens, 72 h, 3 days
# [4] = as above; type: cell-based, human; settings: human, 1532NPTX cells
# NCI-60 cell line panel = test: NCI 60 cell line panel screening; type: cell-based, human; settings: initial screening per DTP protocol
# Experimental: panel. KBU2046 was submitted to the Developmental Therapeutics Program (DTP) of the US National Cancer Institute (NCI), underwent initial screening across the NCI 60 cell line panel per DTP protocol 1, and the resultant COMPARE diagram is depicted above. Based upon its lack of […]
# Supplementary Figure 3. […] Estrogen […]
# receptor positive MCF-7 cells were cultured under hormone free conditions transfected pERE-Luc or empty control vector, along with constitutive active β-gal, grown under estrogen-free conditions, and pre-treated for 24 hours with nanomolar concentrations of estradiol, or with micromolar concentrations of genistein or KBU2046, as indicated. Luciferase activity was measured, normalized to that of β-gal, and values expressed as the percent of untreated vector control cells. Values are the mean±SD of a single experiment, with similar results seen in a separate repeat experiment, both in replicates of N=2.
# (also on this page, place not known: luciferase/B-gal activity, % untreated vector control)
# (1 picture or pasted object on this page, not shown here)
# [5] = pre-cohort, 80 mg/kg daily oral gavage
compound,measurement,setting,value
"O=C1c2ccccc2OCC1c1ccc(F)cc1 (racemic) [KBU2046, (±)-3(4-fluorophenyl)chroman-4-one]",inhibition of protein kinases and phosphatases,[1],failure to inhibit
same,survival,[2],significantly prolonged the survival
same,toxicity to human bone marrow stem cells,[3]; 14 days,not toxic
same,toxicity to stem cells,[3]; up to 40 micromolar for 14 days,no toxicity
same,total body metastasis,PC3-luc cells; Pre7Stop cohort,total body metastasis is significantly decreased
same,metastasis to the total body and jaw,"PC3-luc cells; post-cohort, treatment from 3 days post IC injection",do not differ from control mice
same,metastasis to the mandible,PC3-luc cells; [5],decreased metastasis to the mandible
same,total metastatic burden,PC3-luc cells; [5],significant decrease in total metastatic burden
same,"destruction of bone (mandible, CT)","PC3-luc cells; pre-cohort, week 4",decreased destruction of bone
same,IC20,1532NPTX,> 50 µM
same,pIC50,1532NPTX,< 4.30
same,"viability at 3 days, 50 µM",[4],95.3%
same,toxicity to NCI-60 cells,NCI-60 cell line panel,not toxic
